Assay [1] concerns bovine cartilage explants. Nature of the assay: Bovine cartilage explant assay (35S-GAG release, rhIL-1α stimulated). It is filed as cell-based. To be noted: rhIL-1α 5 ng/mL, 3-4 days culture. The text has this: A tissue culture assay was used to measure the ability of the compounds of the present invention to slow the degradation of the extracellular matrix by metalloproteinases. This assay measured the amount of ^35 S-glycosaminoglycan (^35 S-GAG) released from labeled bovine cartilage explants.
Knee joints from a 1 to 3 week old calf were obtained immediately after sacrifice from the Abattoir and then transported on ice. The intact joints were washed well with tap water and soaked in 50% (v/v) Povidine iodine solution, obtained from Burre National, Inc., Baltimore, Md. All subsequent steps were performed in a laminar flow tissue culture hood using standard sterile technique. The joint was immobilized in a shank holder and the joint capsule was cut open to expose the articular cartilage. Cartilage explant plugs, approximately 15 mg wet weight, were removed from the flat articulating surfaces in the lower-most region of the knee joint using a sterile steel cork-borer and collected in a 250 mL roller bottle containing about 100 mL fresh Delbecco's minimum essential medium (DMEM), obtained from Gibco BRC, Life Technologies, Gaithersburg, Md., containing 4.5 g/l (D)-glucose and (L)-glutamine, without sodium pyruvate. The fresh media also contained enough Hepes buffer and sodium bicarbonate such that the pH was about 7.4. The media was then further supplemented just before use with 100 units Penicillin, 100 μg Streptomycin, and 50 μg (L)-ascorbic acid per mL of medium.
Once collected, the explant plugs were washed four times with 50 mL fresh DMEM. The plugs were then placed in the incubator for a minimum of 1 hour to equilibrate, before proceeding to make disks from the articulating surface of each plug. A 1 mm thick disk was sliced from individual plugs from the end that was the articulating surface of the joint. The plug was held steady in the sterile template (4 mm diameter×1.5 mm deep) using sterile forceps. A scalpel blade was used to carefully slice off the disk. Only the superficial articulating surface responded well in culture.
Individual disks obtained were transferred to a tissue culture flask containing about 100 mL fresh media. The flask containing the disks was placed in an incubator at 37° C. (with 5% CO2, 95% air) and allowed to equilibrate overnight and at least one additional day before labeling. When ready to label, the old media was replaced with 50 mL fresh media containing about 500 μCi ^35 S-Sodium Sulfate. The plugs were labeled in bulk for about 48 hours. The next morning, the "hot" media was removed and replaced with fresh "cold" media. The disks were again allowed to equilibrate overnight before being used for actual experiments.
The media in which the disks were stored was changed immediately prior to performing the assay. The disks were then returned to the incubator until the test media and the two control media had been prepared. The test media consisted of the desired concentration of a compound being tested for its ability to inhibit extracellular matrix degradation and concomitant recombinant human Interleukin rhIL-1α (5 ng/mL) in fresh DMEM solution. The control media were identical to the test media, except that the first control media lacked rhIL-1α and the second control media lacked the test compound. 250 μL of each of the test and control media were transferred to separate 96-well TC plates. Flamed forceps were used to transfer a disk from the incubator to each 96-well TC plates that had been filled with either the test media or one of the two control media.
The TC plates were then placed in the incubator and cultured for 3-4 days (initial incubation with rhIL-1α alpha takes at least 3 days to stimulate endogenous metalloproteinases). A 50 μL aliquot of media from each TC plate was saved and counted. The rest of the media was removed with a suction device.
The cartilage disks from each TC plate were also saved for counting. […]

For assay [2], the target named is stromelysin (Homo sapiens, UniProt P08254). Nature of the assay: Assay of stromelysin inhibition activity (fluorogenic coumarin peptide substrate). To be noted: trypsin-activated stromelysin 2 nM, H-150 buffer pH 7.4, room temperature; read-out: Ki(app). It is filed as biochemical. The procedure, abridged: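 Human stromelysin trypsin-activated, then used at 2 nM in HEPES/NaCl/CaCl2 buffer pH 7.4 at room temperature with coumarin peptide substrate. Initial hydrolysis rate followed by fluorescence (ex 328/em 393 nm); inhibitor added stepwise to 30-70% inhibition, Ki derived assuming simple competitive inhibition with substrate far below Km.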
Chain of stromelysin (P08254 100-477): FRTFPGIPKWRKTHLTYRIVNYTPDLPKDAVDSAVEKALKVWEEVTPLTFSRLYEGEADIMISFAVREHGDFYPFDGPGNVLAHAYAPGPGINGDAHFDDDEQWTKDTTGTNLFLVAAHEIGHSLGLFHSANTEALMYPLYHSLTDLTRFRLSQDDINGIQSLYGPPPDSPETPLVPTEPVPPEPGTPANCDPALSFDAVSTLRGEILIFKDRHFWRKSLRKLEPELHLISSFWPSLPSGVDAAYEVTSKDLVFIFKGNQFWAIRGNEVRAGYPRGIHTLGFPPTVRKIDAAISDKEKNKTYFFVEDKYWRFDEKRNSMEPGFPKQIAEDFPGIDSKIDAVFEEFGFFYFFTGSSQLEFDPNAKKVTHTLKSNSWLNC

The target in assay [3] is 92 kD gelatinase (Homo sapiens, UniProt P14780). The experiment in a line: Assay of 92 KD gelatinase inhibition activity. It is filed as biochemical. Particulars: 92KD gelatinase 25 pM, H-150 buffer pH 7.4; read-out: Ki(app). As for the experimental part:
H-150 buffer, pH 7.4, was prepared by CaCl2 H2 O (1.47 grams), NaCl (8.77 grams) and N-[2-hydroxyethyl]piperazine-N'-[2-ethanesulfonic acid](23.83 grams) to distilled and deionized water and then bring the final volume of the solution to 1 liter. A reaction mixture having a final volume of 500 μL was prepared with H-150 buffer, 200 μgrams of Pro-92KD gelatinase (Strongin et al., J. Biol. Chem., 268:14033 (1993); Goldberg, et al., J. Biol. Chem., 267:4583 (1992); Okada et al., J. Biol. Chem. 267:21712 (1992)), p-aminophenyl mercuric acetate (Sigma Chemical Co., St. Louis, Mo.) (1 mM) and Brij (dodexylpoly(oxyethyleneglycolether))(0,008% w/v). The reaction mixture wsa then incubated for 24 hours at 37° C.
The reaction mixture was applied to a NAP-5 column (G-25 SEPHADEX™, Pharmacia). Fractions containing 72KD gelatinase were identified using 12% polyacrylamide gel electrophoresis and concentrated to about 100-200 μliters by centrifigation (5000 g, 1 hour).
A solution containing H-150 buffer (2.0 mL), 92KD gelatinase (25 pM) and ethylphenolpoly(ethylene-glycolether)n (Boerhringer Mannheim) (4.0 μM) was prepared in a stirred cuvette. Coumarin peptide substrate (4 μL of a 5 mM solution in dimethyl sulfoxide) was added to the reaction mixture. The rate of hydrolysis was determined for about 100-200 seconds by measuring the fluorescence of the reaction at ex328 nanometers and […] using a Hitachi F-2000 Fluorescence Spectrophotometer.
(§1) 2 μL of a 10 mM inhibitor stock solution (in dimethyl sulfoxide) is added and the reduction in the rate of hydrolysis is determined. Additional 2 μL aliquots of the stock inhibitor solution is added until a 30% to 70% inhibition is observed. Ki is calculated on the assumption of simple competitive inhibition and that the substrate concentration is much less than Km.

Assay [4] deals with human neutrophil collagenase (Homo sapiens, UniProt P22894). The experiment in a line: Assay of human neutrophil collagenase inhibition activity. To be noted: human neutrophil collagenase 2 nM, H-150 buffer pH 7.4; read-out: Ki(app). It is filed as biochemical. As for the experimental part:
H-150 buffer, pH 7.4, was prepared by adding CaCl2 H2 O (1.47 grams), NaCl (8.77 grams) and N-[2-hydroxyethyl]piperazine-N'-[2-ethanesulfonic acid] (23.83 grams) to distilled and deionized water and then bringing the final volume of the solution to 1 liter.
A reaction mixture with a final volume of 2.0 mL was prepared from H-150 buffer, human neutrophil collagenase (Schnierer, et al., Blochem. Biophys. Res. Comm., 191:319 (1993); Knight et al., Federation of Europena Biochemical Societies 296:263 (1992)) (2 nM). Coumarin peptide substrate (4 μL of a 5 mM solution in dimethyl sulfoxide) was added to the reaction mixture. The rate of hydrolysis was determined for about 100-200 seconds by measuring the fluorescence of the reaction at ex328 nanometers and […] using a Hitachi F-2000 Fluorescence Spectrophotometer.
as §1

Setting [5] is: Bos taurus, 25 μM compound, read-out: % inhibition (concentration [μM]) of cartilage degradation.

Chain of human neutrophil collagenase (P22894 101-467): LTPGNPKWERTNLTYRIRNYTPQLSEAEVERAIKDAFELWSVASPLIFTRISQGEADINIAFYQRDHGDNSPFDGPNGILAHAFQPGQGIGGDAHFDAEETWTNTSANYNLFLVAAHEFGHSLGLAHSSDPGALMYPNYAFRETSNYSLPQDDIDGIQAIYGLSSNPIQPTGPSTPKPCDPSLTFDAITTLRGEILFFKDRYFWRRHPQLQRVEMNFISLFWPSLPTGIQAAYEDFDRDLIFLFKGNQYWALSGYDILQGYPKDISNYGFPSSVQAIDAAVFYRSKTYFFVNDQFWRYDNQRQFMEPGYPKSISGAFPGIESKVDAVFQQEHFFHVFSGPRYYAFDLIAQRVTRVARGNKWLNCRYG
Chain of 92 kD gelatinase (P14780 107-707): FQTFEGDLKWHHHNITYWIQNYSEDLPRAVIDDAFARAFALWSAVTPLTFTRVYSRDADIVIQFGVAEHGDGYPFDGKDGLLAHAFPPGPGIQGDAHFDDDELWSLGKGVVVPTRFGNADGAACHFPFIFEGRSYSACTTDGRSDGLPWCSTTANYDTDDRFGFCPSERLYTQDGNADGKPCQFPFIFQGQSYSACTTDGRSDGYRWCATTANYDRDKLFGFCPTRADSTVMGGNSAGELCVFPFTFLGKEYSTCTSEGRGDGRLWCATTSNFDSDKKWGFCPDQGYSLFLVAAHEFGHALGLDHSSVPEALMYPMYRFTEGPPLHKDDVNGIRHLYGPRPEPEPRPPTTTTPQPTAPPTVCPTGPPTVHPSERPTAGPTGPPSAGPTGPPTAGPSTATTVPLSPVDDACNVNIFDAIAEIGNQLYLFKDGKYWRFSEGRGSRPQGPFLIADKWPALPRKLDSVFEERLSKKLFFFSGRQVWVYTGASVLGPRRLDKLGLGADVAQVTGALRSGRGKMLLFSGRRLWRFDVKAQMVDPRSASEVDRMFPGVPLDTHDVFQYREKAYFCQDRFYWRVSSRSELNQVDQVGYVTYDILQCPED

Take `CC(C)[C@H](NC(=O)[C@H](CCC(=O)OCc1ccccc1)NC(=O)OCc1ccccc1)C(=O)Nc1n[nH]c(=S)s1` [5-(N-benzyloxycarbonyl-(O-benzyl)glutamoyl-valylamino)-1,3,4-thiadiazole-2-thione]: the “% inhibition (concentration [μM]) of cartilage degradation” value (“% inhibition (concentration [μM])” for short) in assay [1] (25 μM compound) is 33%. Further, the Ki in assay [2] is 146 nM.

On to `CC(C)[C@H](NC(=O)Cc1ccc(-c2ccccc2)cc1)C(=O)Nc1n[nH]c(=S)s1` [5-(N-((4-phenyl)phenylacetyl)valylamino)-1,3,4-thiadiazole-2-thione], for which, in assay [1] (setting [5]), the inhibition at 25 µM was 47%. In assay [2], the Ki was 100 nM.

Turning to `O=C(N[C@@H](Cc1c[nH]c2ccccc12)C(=O)N[C@@H](Cc1ccccc1)C(=O)Nc1n[nH]c(=S)s1)OCc1ccccc1` [5-(N-benzyloxycarbonyl-tryptoyl-phenylalanylamino)-1,3,4-thiadiazole-2-thione], the “% inhibition (concentration [μM])” value in assay [1] (50 μM compound) was determined as 35%. For the same compound, the Ki in assay [2] stood at 225 nM.

For `CC(C)[C@H](NC(=O)[C@H](Cc1ccccc1)NC(=O)Cc1ccc(-c2ccccc2)cc1)C(=O)Nc1n[nH]c(=S)s1` [5-(N-(4-phenyl)phenylacetyl-phenylalanyl-valylamino)-1,3,4-thiadiazole-2-thione], in assay [1] (25 μM compound), the “% inhibition (concentration [μM])” value came to 37%. Also, the Ki in assay [2] was determined as 135 nM.

On to `CC(C)[C@H](NC(=O)[C@H](CCC(=O)NC(c1ccccc1)(c1ccccc1)c1ccccc1)NC(=O)OCc1ccccc1)C(=O)Nc1n[nH]c(=S)s1` [5-(N-benzyloxycarbonyl-(7--N-trityl)glutamyl-valyamino-1,3,4-thiadiazole-2-thione], for which the “% inhibition (concentration [μM])” value in assay [1] (25 μM compound) worked out at 56%. Moreover, the Ki in assay [2] was determined as 91 nM.

On to `O=C(N[C@H](CCc1ccccc1)C(=O)Nc1n[nH]c(=S)s1)OCc1ccccc1` [5-(N-benzyloxycarbonyl-D-homophenylalanylamino)-1,3,4-thiadiazole-2-thione], for which the inhibition at 25 µM in assay [1] (setting [5]) worked out at 22%.

Consider `O=C(N[C@@H](CCc1ccccc1)C(=O)Nc1n[nH]c(=S)s1)OCC1c2ccccc2-c2ccccc21` [5-(N-(9-flourenylmethoxycarbonyl)homophenylalanylamino)-1,3,4-thiadiazole-2-thione], for which the Ki in assay [3] came out at 0.35 nM; in assay [2] it was 436 nM. Moreover, the “% inhibition (concentration [μM])” value in assay [1] (50 μM compound) is reported as 65%.

As for `CC(C)[C@H](NC(=O)[C@H](Cc1ccc(OCc2ccccc2)cc1)NC(=O)OCc1ccccc1)C(=O)Nc1n[nH]c(=S)s1` [5-(N-benzyloxycarbnyl-(O-benzyl)tyrosyl-valylamino)-1,3,4-thiadiazole-2-thione], the Ki in assay [4] turned out to be 2.15 nM; in assay [2], 80 nM. For the same compound, the “% inhibition (concentration [μM])” value in assay [1] (50 μM compound) worked out at 59%.

For the compound `CC(C)[C@H](NC(=O)OCC1c2ccccc2-c2ccccc21)C(=O)Nc1n[nH]c(=S)s1` [5-(N-(9-fluorenylmethoxycarbonyl)valylamino)-1,3,4-thiadiazole-2-thione], in assay [1] (Bos taurus, 20 μM compound, read-out: % inhibition (concentration [μM]) of cartilage degradation), the inhibition at 20 µM was found to be 42%. The Ki in assay [2] amounted to 128 nM.
